The values that follow come from patent US10172863B2, “Purine derivatives useful as HSP90 inhibitors” (Sloan-Kettering Institute for Cancer Research, priority 2009, dated 2019).

The test system of this experiment is SKBr3 cell Hsp90. Description: EC50 for Hsp90 binding in SKBr3 cell lysate. Particulars: read-out: EC50, binding to SKBr3 cell Hsp90.
For `CC(C)CNCCN1C(Sc2cc3c(cc2I)OCCO3)=NC2C(N)=NC=NC21` (stereo not shown) [Compound 5A-2, 8-(7-Iodo-2,3-dihydrobenzo[b][1,4]dioxin-6-ylthio)-9-(2-(isobutylamino)ethyl)-5,9-dihydro-4H-purin-6-amine], the EC50 was determined as 34.6 nM.

On to `CC(C)(C)CNCCN1C(Sc2cc3c(cc2I)OCCO3)=NC2C(N)=NC=NC21` (stereo not shown) [Compound 5A-3, 8-(7-Iodo-2,3-dihydrobenzo[b][1,4]dioxin-6-ylthio)-9-(2-(neopentylamino)ethyl)-5,9-dihydro-4H-purin-6-amine], for which the EC50 stood at 34.8 nM.

`Nc1ncnc2c1nc(Sc1cc3c(cc1I)OCCO3)n2CCCn1ccnc1` [Compound 5A-4, 9-(3-(1H-imidazol-1-yl)propyl)-8-(7-iodo-2,3-dihydrobenzo[b][1,4]dioxin-6-ylthio)-9H-purin-6-amine]: the half-maximal effective concentration (EC50) is 62.8 nM.

Regarding `CC(C)NCCCn1c(Sc2cc3c(cc2-c2ccco2)OCCO3)nc2c(N)ncnc21` [Compound 5B-1, 8-((7-(furan-2-yl)-2,3-dihydrobenzo[b][1,4]dioxin-6-yl)thio)-9-(3-(isopropylamino)propyl)-9H-purin-6-amine], the EC50 came out at 6.9 nM.

As for `CC(C)NCCCn1c(Sc2cc3c(cc2-c2ncco2)OCCO3)nc2c(N)ncnc21` [Compound 5B-34, 9-(3-(isopropylamino)propyl)-8-((7-(oxazol-2-yl)-2,3-dihydrobenzo[b][1,4]dioxin-6-yl)thio)-9H-purin-6-amine], the EC50 came to 3.5 nM.

For `CC(C)NCCCn1c(Sc2cc3c(cc2-c2cc[nH]n2)OCCO3)nc2c(N)ncnc21` [Compound 5D-2, 8-((7-(1H-pyrazol-3-yl)-2,3-dihydrobenzo[b][1,4]dioxin-6-yl)thio)-9-(3-(isopropylamino)propyl)-9H-purin-6-amine], the EC50 was 11.2 nM.

As to `CC(C)NCCCn1c(Sc2cc3ccccc3cc2I)nc2c(N)ncnc21` [Compound 6B-25, 8-(3-iodonaphthalen-2-ylthio)-9-(3-(isopropylamino)propyl)-9H-purin-6-amine], the EC50 is 97 nM.

With `COc1ccc(-c2ccco2)c(Sc2nc3c(N)ncnc3n2CCNCC(C)(C)C)c1` [Compound 7C-13, 8-(2-(furan-2-yl)-5-methoxyphenylthio)-9-(2-(neopentylamino)ethyl)-9H-purin-6-amine], the EC50 came out at 84 nM.

`COc1ccc(-c2cccs2)c(Sc2nc3c(N)ncnc3n2CCNCC(C)(C)C)c1` [Compound 7D-3, 8-(5-methoxy-2-(thiophen-2-yl)phenylthio)-9-(2-(neopentylamino)ethyl)-9H-purin-6-amine]: the EC50 came out at 240 nM.

With `COc1ccc(-c2cc[nH]n2)c(Sc2nc3c(N)ncnc3n2CCNCC(C)(C)C)c1` [Compound 7E-6, 8-(5-methoxy-2-(1H-pyrazol-3-yl)phenylthio)-9-(2-(neopentylamino)ethyl)-9H-purin-6-amine], the EC50 came to 32 nM.
